In patent publication US7579356B2, “Thia-tetraazaacenaphthylene kinase inhibitors” (Janssen Pharmaceutica NV, priority 2005, dated 2009):

What was measured:
HER-2 = target: T1, HER-2 (Homo sapiens, UniProt P04626); test: HER-2 Kinase Assay; type: biochemical; conditions: value in parentheses
T1 construct: His6 with thrombin site (N); purchased Proqinase (Freiburg, Germany)
Summary of the method: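 Read-out was scintillation counting of 33P incorporated into biotinylated polyGluTyr captured on streptavidin plates. Reactions ran 1 h at 30 °C with GST-fused HER-2 residues 679–1255, 1 μM ATP, Mn2+ and Mg2+ at pH 7.5; data given as percent inhibition at 1 μM, with IC50 where determined.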

EGFR = target: T2, EGFR (Homo sapiens, UniProt P00533); test: EGFR Kinase Assay; type: biochemical; conditions: for IC50: GST-EGFR, ATP 5 μM; for inhibition at 2 µM: test concentration of 2 μM, compounds without an IC50, read-out: EGFR inhibition in percent
T2 construct: The intracellular portion of EGFR started at nucleotide 2189 (corresponding to amino acid 667) and ended at the termination codon; made in house; host or cells: Sf9 insect cells (baculovirus)
Summary of the method: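 Potency came from triplicate 16-point half-log titrations starting at 200 uM, with IC50 fitted from % inhibition against log concentration, or % inhibition at 2 μM otherwise. Reaction: Sf9-made GST–EGFR cytoplasmic region (aa 667 onward), biotin-polyGluTyr, 5 μM ATP with 33P tracer, pH 8.0 Tris/Mg/vanadate/DTT, 30 °C for 1 h; captured on streptavidin Flashplates and counted.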

T1 sequence (P04626 679-1255): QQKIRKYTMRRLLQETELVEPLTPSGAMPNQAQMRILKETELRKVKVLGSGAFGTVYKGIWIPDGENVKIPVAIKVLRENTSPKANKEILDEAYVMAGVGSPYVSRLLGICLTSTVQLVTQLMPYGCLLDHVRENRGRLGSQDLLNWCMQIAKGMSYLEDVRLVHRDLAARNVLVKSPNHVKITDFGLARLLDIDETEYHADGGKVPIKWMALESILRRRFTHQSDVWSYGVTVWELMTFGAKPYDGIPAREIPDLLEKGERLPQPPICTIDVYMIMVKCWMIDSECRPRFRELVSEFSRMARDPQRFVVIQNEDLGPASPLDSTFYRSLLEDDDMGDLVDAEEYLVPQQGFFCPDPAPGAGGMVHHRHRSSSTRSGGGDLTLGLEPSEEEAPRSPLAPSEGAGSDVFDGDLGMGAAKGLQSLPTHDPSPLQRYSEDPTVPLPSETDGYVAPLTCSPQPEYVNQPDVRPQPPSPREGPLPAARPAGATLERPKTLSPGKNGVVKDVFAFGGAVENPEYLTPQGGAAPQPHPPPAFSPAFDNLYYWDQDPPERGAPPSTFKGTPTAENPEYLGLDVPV
T2 sequence (P00533 669-1210 limits assumed): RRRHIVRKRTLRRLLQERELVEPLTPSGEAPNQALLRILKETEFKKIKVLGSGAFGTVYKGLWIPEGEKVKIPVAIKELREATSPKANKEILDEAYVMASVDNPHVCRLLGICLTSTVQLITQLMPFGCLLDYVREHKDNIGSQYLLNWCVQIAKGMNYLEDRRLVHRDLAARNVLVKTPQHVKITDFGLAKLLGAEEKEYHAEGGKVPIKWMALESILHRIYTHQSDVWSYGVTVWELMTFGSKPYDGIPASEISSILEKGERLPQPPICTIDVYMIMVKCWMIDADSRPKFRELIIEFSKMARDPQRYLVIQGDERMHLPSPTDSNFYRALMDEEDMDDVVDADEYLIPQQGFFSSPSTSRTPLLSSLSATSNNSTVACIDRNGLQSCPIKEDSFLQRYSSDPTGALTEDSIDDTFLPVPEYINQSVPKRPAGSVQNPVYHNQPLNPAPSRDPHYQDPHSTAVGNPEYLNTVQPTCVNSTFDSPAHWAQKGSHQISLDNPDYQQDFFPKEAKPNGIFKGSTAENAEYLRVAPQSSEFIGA

| SMILES | IC50 (HER-2) [nM] | IC50 (EGFR) [nM] | inhibition at 2 µM (EGFR) [%] |
| --- | --- | --- | --- |
| COc1cc(NC(=O)c2sc3ncnc4c3c2NC(=O)N4c2ccc(OCc3ccco3)c(Cl)c2)ccc1CN1CCOCC1 [Cpd 246, 5-[3-chloro-4-(furan-2-ylmethoxy)-phenyl]-4-oxo-4,5-dihydro-3H-1-thia-3,5,6,8-tetraaza-acenaphthylene-2-carboxylic acid (3-methoxy-4-morpholin-4-ylmethyl-phenyl)-amide] | 47 | 22 |  |
| CN1CCC(NC(=O)c2sc3ncnc4c3c2NC(=O)N4c2ccc(OCc3ccco3)c(Cl)c2)CC1 [Cpd 247, 5-[3-chloro-4-(furan-2-ylmethoxy)-phenyl]-4-oxo-4,5-dihydro-3H-1-thia-3,5,6,8-tetraaza-acenaphthylene-2-carboxylic acid (1-methyl-piperidin-4-yl)-amide] | 1190 | 249 |  |
| O=C(Nc1ccc(N2C(=O)Nc3c(C(=O)Nc4ccc(CN5CCOCC5)cc4)sc4ncnc2c34)cc1)c1ccccc1 [Cpd 248, 5-(4-benzoylamino-phenyl)-4-oxo-4,5-dihydro-3H-1-thia-3,5,6,8-tetraaza-acenaphthylene-2-carboxylic acid (4-morpholin-4-ylmethyl-phenyl)-amide] | > 100000 |  | 8 |
| O=C(Nc1ccc(N2C(=O)Nc3c(C(=O)Nc4ccc(CN5CCCCC5)cc4)sc4ncnc2c34)cc1)c1ccccc1 [Cpd 249, 5-(4-benzoylamino-phenyl)-4-oxo-4,5-dihydro-3H-1-thia-3,5,6,8-tetraaza-acenaphthylene-2-carboxylic acid (4-piperidin-1-ylmethyl-phenyl)-amide] | > 100000 |  | 9 |
| O=C(Nc1ccc(CCN2CCCCC2)cc1)c1sc2ncnc3c2c1NC(=O)N3c1cccc2ccoc12 [Cpd 251, 5-benzofuran-7-yl-4-oxo-4,5-dihydro-3H-1-thia-3,5,6,8-tetraaza-acenaphthylene-2-carboxylic acid [4-(2-piperidin-1-yl-ethyl)-phenyl]-amide] | 285 | 141 |  |
| CN1CCN(Cc2ccc(NC(=O)c3sc4ncnc5c4c3NC(=O)N5c3ccc(OCc4cccc(F)c4)c(Cl)c3)cc2)CC1 [Cpd 252, 5-[3-chloro-4-(3-fluoro-benzyloxy)-phenyl]-4-oxo-4,5-dihydro-3H-1-thia-3,5,6,8-tetraaza-acenaphthylene-2-carboxylic acid [4-(4-methyl-piperazin-1-ylmethyl)-phenyl]-amide] | 610 | 161 |  |
| CC1COCC(C)N1Cc1ccc(NC(=O)c2sc3ncnc4c3c2NC(=O)N4c2ccc(Oc3ccccc3)cc2)cc1 (centres unmarked) [Cpd 253, 4-oxo-5-(4-phenoxy-phenyl)-4,5-dihydro-3H-1-thia-3,5,6,8-tetraaza-acenaphthylene-2-carboxylic acid [4-(3,5-dimethyl-morpholin-4-ylmethyl)-phenyl]-amide] | 344 | 120 |  |
| O=C(Nc1ccc(CN2CCC(CO)CC2)cc1)c1sc2ncnc3c2c1NC(=O)N3c1ccc(Oc2ccccc2)cc1 [Cpd 254, 4-oxo-5-(4-phenoxy-phenyl)-4,5-dihydro-3H-1-thia-3,5,6,8-tetraaza-acenaphthylene-2-carboxylic acid [4-(4-hydroxymethyl-piperidin-1-ylmethyl)-phenyl]-amide] | 68 | 26 |  |
| CC1CCN(Cc2ccc(NC(=O)c3sc4ncnc5c4c3NC(=O)N5c3ccc(Oc4ccccc4)cc3)cc2)CC1 [Cpd 255, 4-oxo-5-(4-phenoxy-phenyl)-4,5-dihydro-3H-1-thia-3,5,6,8-tetraaza-acenaphthylene-2-carboxylic acid [4-(4-methyl-piperidin-1-ylmethyl)-phenyl]-amide] | 24 | 41 |  |
| O=C(Nc1ccc(CN2CCCC(CO)C2)cc1)c1sc2ncnc3c2c1NC(=O)N3c1ccc(Oc2ccccc2)cc1 (centres unmarked) [Cpd 256, 4-oxo-5-(4-phenoxy-phenyl)-4,5-dihydro-3H-1-thia-3,5,6,8-tetraaza-acenaphthylene-2-carboxylic acid [4-(3-hydroxymethyl-piperidin-1-ylmethyl)-phenyl]-amide] | 450 | 321 |  |
